Tests used:
[1] = target: T1, PTP1B (human recombinant) (Homo sapiens, UniProt P18031); test: PTP1B inhibitory assay with pNPP substrate, with Dixon and Lineweaver-Burk kinetics; assay type: biochemical; details: for Protein Tyrosine Phosphatase 1B Inhibition Type: determined by Dixon and Lineweaver-Burk plots; for Ki: determined by the Dixon plot, read-out: Protein Tyrosine Phosphatase 1B Ki Value; for IC50: pNPP substrate, mean ± SEM of triplicate, read-out: Protein Tyrosine Phosphatase 1B IC50
T1 construct: purchased Biomol International LP (Plymouth Meeting, Pennsylvania, USA)
T1 sequence (P18031 1-435): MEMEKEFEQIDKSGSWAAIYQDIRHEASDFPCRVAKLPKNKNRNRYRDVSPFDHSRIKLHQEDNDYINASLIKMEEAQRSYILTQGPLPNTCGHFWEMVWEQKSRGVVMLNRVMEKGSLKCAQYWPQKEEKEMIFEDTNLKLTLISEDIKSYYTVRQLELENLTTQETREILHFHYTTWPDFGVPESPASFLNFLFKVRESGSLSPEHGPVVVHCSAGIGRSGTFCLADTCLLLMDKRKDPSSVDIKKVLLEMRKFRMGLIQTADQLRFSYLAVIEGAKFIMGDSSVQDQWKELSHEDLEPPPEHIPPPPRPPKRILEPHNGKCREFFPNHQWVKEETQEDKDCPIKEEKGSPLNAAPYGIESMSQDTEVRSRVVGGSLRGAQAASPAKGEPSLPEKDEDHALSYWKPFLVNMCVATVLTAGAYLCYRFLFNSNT
Experimental: The inhibitory activity of PTP1B has been tested using pNPP previously reported in our paper. The amount of p-nitrophenyl produced after enzymatic dephosphorylation of pNPP was calculated using a microplate spectrophotometer (Molecular Devices) to calculate absorbance at 405 nm.
(§1) Two kinetic methods using Lineweaver-Burk and Dixon plots have been complemented for the determination of the kinetic process. PTP1B inhibition mode was calculated at different pNPP substrate concentration (0.5, 1.0, and 2.0 mM) in the absence or presence of different coumarins test concentrations (0, 0.8, 4.0, and 20.0 µM for (+)-trans-decursidinol; 0, 2.0, 10.0, and 50 µM for Pd-C-I and Pd-C-II; 0, 4.0, 20.0, and 100 µM for Pd-C-III) using Lineweaver-Burk and Dixon plots. By monitoring the effects of different concentrations of the substrates in the Dixon plots (single reciprocal plot), each enzymatic inhibition of test coumarins was assessed. Additionally, in the presence of different concentrations of substrate: 2.5, 1.25, and 0.625 mM pNPG, the Lineweaver-Burk and Dixon plots for α-glucosidase inhibition of coumarins were also performed. The test concentrations of the coumarins in the α-glucosidase kinetic analysis were as follows 0, 7.81, 15.62, 31.25, and 62.5 µM for (+)-trans-decursidinol, Pd-C-I, and Pd-C-II; 0, 15.62, 31.25, 62.5, and 125 µM for Pd-C-III. The PTP1B and α-glucosidase assay methods were the same for both enzymatic procedures. The inhibition constants (Ki) were calculated by interpretation of the Dixon plots, where the value of the x-axis means -Ki.

yeast α-glucosidase = yeast α-glucosidase (Saccharomyces cerevisiae, UniProt P53341); test: α-Glucosidase inhibitory assay with pNPG substrate, with Dixon and Lineweaver-Burk kinetics; assay type: biochemical; details: determined by Dixon and Lineweaver-Burk plots
yeast α-glucosidase, sequence (P53341 whole entry): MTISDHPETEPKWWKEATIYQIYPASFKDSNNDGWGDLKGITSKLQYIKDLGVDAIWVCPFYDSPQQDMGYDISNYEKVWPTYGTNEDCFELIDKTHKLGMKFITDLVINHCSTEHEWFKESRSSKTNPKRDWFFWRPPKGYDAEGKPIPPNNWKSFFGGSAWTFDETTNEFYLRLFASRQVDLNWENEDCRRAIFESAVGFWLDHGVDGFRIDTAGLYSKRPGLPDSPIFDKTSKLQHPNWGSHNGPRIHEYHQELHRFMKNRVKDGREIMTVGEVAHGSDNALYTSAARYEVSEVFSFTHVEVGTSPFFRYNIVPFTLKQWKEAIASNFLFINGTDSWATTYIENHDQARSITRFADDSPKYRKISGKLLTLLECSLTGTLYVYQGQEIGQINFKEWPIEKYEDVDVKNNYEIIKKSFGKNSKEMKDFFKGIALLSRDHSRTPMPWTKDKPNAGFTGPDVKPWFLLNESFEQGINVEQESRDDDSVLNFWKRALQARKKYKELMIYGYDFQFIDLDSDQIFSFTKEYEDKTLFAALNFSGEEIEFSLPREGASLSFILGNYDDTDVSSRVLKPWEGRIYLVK
Experimental: The enzyme inhibition analysis was carried out using the technique previously reported in our paper. The absorbance was recorded at 405 nm immediately afterward using the microplate spectrophotometer (Molecular Devices, Sunnyvale, CA, USA).
as §1

[2] = system: insulin-resistant HepG2 cells; test: 2-NBDG glucose uptake assay; assay type: cell-based, human; details: 24 h, insulin-stimulated 2-NBDG uptake
Experimental: (§2) With minor modifications, the insulin resistant HepG2 cell model was developed according to the previous method. In short, in 96-well plats (2 × 10^5 cells/well), HepG2 cells were cultured. When they reached a confluence, 10^−6 M insulin was treated for 24 h on serum-free MEM to induce insulin resistance, then the cells were incubated for 30 min with 100 nM insulin and harvested for assays as described below.
In accordance with a previous method the glucose uptake assay was established with some modifications. Briefly, HepG2 cells were cultured in 96-well plate to confluence and then treated with 10^−6 M insulin for 24 h to induce insulin resistance (based on a 49% decrease in glucose uptake) (data not shown). Different coumarins (5–40 µM) or 10 µM metformin (non-cytotoxic concentration) concentrations were added and incubated for 24 h, followed by 100 nM insulin and cells incubation for 30 min, respectively. 2-NBDG uptake was measured following this incubation. The cells were incubated with 40 μM of 2-NBDG (dissolved in PBS with 1% BSA) for 20 min. The cells were washed thrice with ice-cold PBS to avoid the reaction, and the fluorescence intensity of 2-NBDG was calculated at 485 nm of excitation and 528 nm of emission on a microplate reader (Bio-Tek Instruments Inc., Winooski, VT, USA). Five replication wells have been set up, and three times each experiment has been replicated.

[3] = system: PTP1B expression in insulin-resistant HepG2 cells; test: PTP1B expression level by Western blot; assay type: cell-based, human
Experimental: as §2
Insulin-resistant HepG2 cells (5 × 10^5 cells/well) were treated for 24 h in 6-well plates with different concentrations of coumarins. The cells were washed with ice-cold PBS three times, collected, then lysed with a sample buffer [50 mM (4-(2-hydroxyethyl)-1-piperazineethanessulfonic acid) pH 7.5, 150 mM NaCl, 2.5 mM EDTA, 0.5% NP-40, 1 mM PMSF, 1 mM DTT, 0.2% aprotinin, 0.5% leupeptin, 20 mM NaF, and 1 mM Na3VO4] on ice after stimulation with 100 nM insulin at 37 °C for 30 min. Insoluble materials were extracted by centrifugation for 20 min at 25,000 × g after incubation for 30 min. An updated Bradford protein assay kit calculated the protein concentrations. Total protein (40 μg) was electrophoresed into a polyvinylidene difluoride (PVDF) membrane by use of a dodecyl sulfate-polyacrylamide gel electrophoresis (SDS-PAGE). In a blocking buffer, membranes were blocked (5% skim milk in Tris-buffered saline containing 0.1% Tween 20 (TBST) and incubated overnight at 4 °C with primary antibodies, followed by incubation at room temperature for 4 h with suitable secondary antibodies. Three times for 30 min with TBST, the membranes were washed. The Supersignal West Pico chemiluminescence substrate (Pierce, Rockford, IL, USA) has been used to visualize the protein bands and pictured on X-ray film (Kodak, Rochester, NY, USA) according to the manufacturer’s instructions. Using CS analyzer software (Atto Corp., Tokyo, Japan), bands were scanned and quantitated and the control was set to 1. As the internal control, β-actin was used. For determining the molecular weights of protein bands, prestained blue protein markers were used. Comparisons were made between mean band densities in same gels. Autoradiography visualized protein bands and measured the intensities using Quantity One software (Bio-Rad Laboratories, Hercules, CA, USA).

[4] = Inhibition of ONOO−-mediated albumin (protein tyrosine) nitration, Western blot; assay type: biochemical
Experimental: ONOO^−-mediated protein tyrosine nitration was evaluated with minor modifications by using in our previously reported method.

[5] = system: t-BHP-treated HepG2 cells; test: Intracellular ROS level in t-BHP-treated HepG2 cells (DCFH-DA); assay type: cell-based, human; details: 200 μM t-BHP; for ROS generation: 10–40 μM
Experimental: A fluorometric assay was used to measure the intracellular ROS level in HepG2 cells applying the oxidant-sensitive fluorescence probe 2, DCFH-DA [47]. In order to determine the extent of intracellular ROS scavenging activity, HepG2 cells were seeded into black 96-well plates at a density of 2.0 × 10^5 cells/well and incubated with coumarins at a concentrations range of 2.5–40 µM for 1 h. To induce ROS production, cells were subsequently exposed to 200 µM tert-butyl hydroperoxide (t-BHP) for 30 min and were then incubated for 30 min with DCFH-DA (20 μM). At an excitation wavelength of 485 nm and an emission wavelength of 530 nm, the resulting fluorescence intensities were measured using a fluorescence microplate reader (FL × 800; Bio-Tek Instruments Inc., Winooski, UT, USA).

[6] = ONOO− scavenging activity (DHR 123); assay type: biochemical; details: mean ± SEM of triplicate
Experimental: ONOO^− scavenging activity was measured using a slight modification of the method reported by Kooy’s that monitors output of fluorescent rhodamine 123 from non-fluorescent DHR 123 in the presence of ONOO^−. The rhodamine buffer (pH 7.4) consisted of 90 mM sodium chloride, 50 mM sodium phosphate dibasic, 5 mM potassium chloride, 100 µM diethylenetriaminepentaacetic acid and 50 mM sodium phosphate monobasic. DHR 123 final concentration was 5 µM. The buffer used in this assay was prepared and put on ice before use. In 10% DMSO, the samples were dissolved and authentic ONOO^− (10 µM) dissolved in 0.3 N sodium hydroxide was added. Background and final fluorescent intensities were measured after 5 min. The fluorescence intensity of the oxidized DHR 123 was measured with a microplate fluorescence reader (Bio-Tek Instruments, Inc., FLx 800, Winooski, UT, USA) on the excitation and emission wavelengths of 480 and 530 nm, respectively. As a standard control, L-penicillamine was used.

[7] = Total ROS generation inhibitory activity (rat kidney homogenate, DCFH-DA); assay type: biochemical; details: mean ± SEM of triplicate
Experimental: The generation of ROS was calculated using the ROS-sensitive fluorescence indicator (DCFH-DA) of 7-dichlorofluorescein diacetate. In a 50 mM potassium phosphate buffer, rat kidney homogenates (Tissue bank from Pusan National University, Busan, S. Korea) were prepared from the kidneys of newly killed male Wistar rats weighing between 150–200 g and 10 μg of each test sample was applied to 190 μL of kidney post mitochondrial fraction. The mixture was loaded in a potassium phosphate buffer with 50 μL of DCFH-DA (12.5 mM) and shaken for 5 min. On a microplate fluorescence spectrophotometer FLX 800 (Bio-Tek Instruments Inc., Winooski, UT, USA), the fluorescence of 2′,7′-dichlorofluorescein (DCF), the oxidation product from DCFH-DA, was measured at an excitation wavelength of 485 nm and an emission wavelength of 530 nm for 30 min. As a positive control, Trolox, was used.

[8] = Homo sapiens, HepG2, pretreated 1 h, read-out: ROS production, inhibition

Row | Structure (SMILES) | Protein Tyrosine Phosphatase 1B Inhibition Type [1] | Ki [1] [µM] | IC50 [1] [µM] | fold more active than decursinol ([1]; versus decursinol of the earlier work, enzyme not named in the sentence (PTP1B and α-glucosidase discussed)) [times] | α-Glucosidase Inhibition Type (yeast α-glucosidase) | relative glucose uptake percentage ([2]; 15 µM) [%] | PTP1B expression ([3]; at 10 and 15 µM, 24 h) | ONOO−-mediated albumin nitration ([4]; pretreatment at 5–40 µM) | inhibition at 5 µM ([5]; Homo sapiens, HepG2, 5 μM, pretreated 1 h, read-out: ROS production, inhibition) [%] | inhibition at 10 µM [5, 8] [%] | inhibition at 15 µM ([5]; Homo sapiens, HepG2, 15 μM, pretreated 1 h, read-out: ROS production, inhibition) [%] | IC50 [6] [µM] | IC50 [7] [µM] | relative glucose uptake percentage ([2]; 40 µM) [%] | PTP1B expression ([3]; concentration not given) | ONOO−-mediated albumin nitration ([4]; pretreatment at 12.5–100 µM) | ROS generation [5] | PTP1B expression ([3]; at 20 and 40 µM, 24 h) | relative glucose uptake percentage ([2]; 10 µM) [%]
1 | CC1(C)Oc2cc3oc(=O)ccc3cc2[C@@H](O)[C@@H]1O [(+)-trans-decursidinol] | Competitive | 2.84 | 2.33 ± 0.07 | 25 | Competitive | 125 | diminished PTP1B’s expression | significantly inhibited in a concentration-dependent manner | 75.5 | 57.5 | 43.4 | 4.57 ± 0.21 | 9.77 ± 0.32 |  |  |  |  |  | 
2 | CC(C)(S)[C@H](N)C(=O)O [L-Penicillamine, L-penicillamine, reference compound] |  |  |  |  |  |  |  |  |  |  |  | 1.86 ± 0.11 |  |  |  |  |  |  | 
3 | C/C=C\C(=O)O[C@H]1[C@H](OC(C)=O)c2cc3ccc(=O)oc3cc2OC1(C)C [Pd-C-III] | Mixed | 16 | 12 ± 0.43 |  | Noncompetitive |  |  |  |  |  |  | 1.44 ± 0.22 | 9.69 ± 0.21 | 117 | significantly downregulated PTP1B’s expression | pronounced dose-dependent inhibition | significantly inhibited ROS generation |  | 
4 | CC(C)=CC(=O)O[C@@H]1c2cc3ccc(=O)oc3cc2OC(C)(C)[C@H]1O [Pd-C-II] | Competitive | 9.72 | 6.17 ± 0.31 |  | Mixed |  |  |  |  |  |  | 3.77 ± 0.15 | 10.8 ± 0.73 | 120 |  | pronounced dose-dependent inhibition | significantly inhibited ROS generation | downregulated PTP1B’s expression | 
5 | CC(C)=CC(=O)O[C@H]1[C@H](O)c2cc3ccc(=O)oc3cc2OC1(C)C [Pd-C-I] | Competitive | 6.21 | 4.32 ± 0.12 |  | Mixed |  |  |  |  |  |  | 1.82 ± 0.44 | 6.32 ± 0.41 | 128 |  | pronounced dose-dependent inhibition | significantly inhibited ROS generation | downregulated PTP1B’s expression | 
6 | Cc1c(C)c2c(c(C)c1O)CCC(C)(C(=O)O)O2 (centres unmarked) [Trolox, trolox, reference compound] |  |  |  |  |  |  |  |  |  | ~49 |  |  | 3.29 ± 0.26 |  |  |  |  |  | 
7 | CN(C)C(=N)N=C(N)N [metformin, reference compound] |  |  |  |  |  |  |  |  |  |  |  |  |  |  |  |  |  |  | 129

Source: article PMC7919472, “Insulin–Mimetic Dihydroxanthyletin-Type Coumarins from Angelica decursiva with Protein Tyrosine Phosphatase 1B and α-Glucosidase Inhibitory Activities and Docking Studies of Their Molecular Mechanisms” (Antioxidants, 2021)
